Square brackets hold non-standard residues; d marks the D form. Ends that are not written are not given here. pS = N[C@@H](COP(=O)(O)O)C(=O)O
Legend:
[1] = system: porcine ear skin; test: In vitro skin penetration and transdermal delivery, porcine ear skin in Franz diffusion cell, spectrofluorimetry (Example 3); conditions: up to 8 hours post-application
Method: Fluorescence microscopy was used to visualize the peptides in different skin layers.
Formulations: Except in the experiments involving chemical penetration enhancers, FITC-labeled peptides were dissolved in phosphate-buffered saline (PBS, 10 mM, pH 7.2); the peptide concentration was 100 μM. In the experiment involving penetration enhancers, PBS could not be used as a solvent because of the lipophilic nature of monoolein and oleic acid. Propylene glycol was used as a solvent, since it solubilizes both lipids and peptides. […] The formulations were prepared by mixing monoolein or oleic acid with propylene glycol and adding the peptides to the system immediately thereafter.
Porcine ear skin was used as model skin for in vitro skin penetration studies because of its similarity with human skin, especially regarding histological and biochemical properties and permeability to drugs (33). Freshly excised porcine ears were obtained from a local abattoir. The skin from the outer surface of the ear was carefully dissected; making sure that the subcutaneous fat was maximally removed (34). Maximum care was taken to maintain the integrity of the skin, which was assured by histology. The cleaned porcine ear skin was immediately mounted in a Franz diffusion cell (diffusion area of 1 cm^2; Laboratory Glass Apparatus, Inc, Berkeley, Calif., USA), with the stratum corneum facing the donor compartment (where the formulation was applied) and the dermis facing the receptor compartment, which was filled with PBS (100 mM, pH 7.2, 3 mL). The receptor phase was maintained at 37° C. and under constant stirring. To achieve higher reproducibility, the skin samples were equilibrated to the diffusion cell conditions for 30 minutes before application of any formulation.
PBS solutions or propylene glycol formulations of the peptides (70 μL each) were applied to the skin surface (donor compartment). […] The concentrations of FITC-P20 (SEQ ID NO: 9), FITC-YARA-P20 (SEQ ID NO: 42), and FITC-TAT-P20 (SEQ ID NO: 43) in the skin and receptor phase were determined at 0.5, 1, 2, 4, and 8 hour post-application.
At the end of the experiment, skin surfaces were thoroughly washed with distilled water to remove excess formulation and carefully wiped with a tissue paper. To separate the stratum corneum (SC) from the remaining epidermis (E) and dermis (D), the skin was subjected to tape stripping. The skin was stripped with 15 pieces of adhesive tape (3M, St. Paul, Minn., USA), and the tapes containing the SC were immersed in 3 mL of a water:methanol (1:1 v/v) solution, vortexed for 2 min, and bath sonicated for 30 minutes. The remaining [E+D] was cut in small pieces, vortexed for 2 minutes in 2 mL of a water:methanol (1:1 v/v) solution, and homogenized using a tissue grinder for 1 minute and bath sonication for 30 minutes. The resulting mixture was centrifuged for 1 minute. The peptide present in the receptor phase was concentrated (10×) as follows. Samples (2 mL) of the receptor phase were lyophilized for 24 hours, and the residue was dissolved in 200 μL of a hidroalcoholic (20% of ethanol) solution.
All solutions were subjected to fluorimetry analysis using a Gemini SpectraMax™ platereader (Molecular Devices, Sunnyvale, Calif., USA) with excitation at 495 nm and emission at 518 nm. […] To evaluate the recovery of the peptides from the skin in the extraction procedure, tissues sections (1 cm^2) were spiked with 20 μL of 0.2 and 0.5 mM solutions of the peptides. The skin sections were homogenized using a tissue grinder, vortex-mixer, and bath sonicator, as described above. […] We accounted for such a recovery percentage in the quantification of peptides.

[2] = system: porcine ear skin; test: Fluorescence microscopy of skin sections after peptide application; conditions: 4 hours post-application
Excerpt: The skin sections (8 μm) were mounted on glass slides. The slides were visualized without any additional staining or treatment through a 20× objective using a Zeiss microscope (Carl Zeiss, Thornwood, N.Y., USA) equipped with a filter for FITC and AxioVision software.

[3] = system: connective tissue growth factor (CTGF); test: TGFβ1-induced CTGF expression in human keloid fibroblasts (immunoblot); assay type: cell-based; conditions: 24 hours; for reduction of CTGF expression compared to TGFβ1 treatment: 50 μM peptide
Method: As a key marker of the anti-fibrotic activity of HSP20 peptides, we have previously examined expression levels of connective tissue growth factor (CTGF) in human keloid fibroblasts after stimulation with transforming growth factor beta 1 (TGFβ1). Cells were grown in 10 cm^2 dishes to 70% confluence in DMEM with 10% fetal bovine serum (FBS) and additional penicillin and streptomycin (1%), at 37° C. and 10% CO2. Cells were serum starved in DMEM containing 0.5% FBS for 48 hours before the experiment. Cells were either untreated (control) or treated with TGFβ1 (2.5 ng/mL) in the presence or absence of WL-P20 (SEQ ID NO: 10) phosphopeptide ([…]p[…], where pS is phosphoserine) (10 or 50 μM) for 24 hours. At the end of the experiment, cells were rinsed with PBS, and homogenized using urea-dithiothreitol-chaps (UDC) buffer. Lysates were mixed, centrifuged (6000×g) for 20 minutes, and the supernatant was used for determination of protein expression. Samples (20 μg of protein) were loaded on 15% SDS-PAGE gels, and the proteins were electrophoretically transferred to Immobilon membranes. Immunoblotting with CTGF antibodies was used in conjunction with near infrared detection antibodies to determine CTGF expression (Odyssey Li-Cor, Lincoln, Nebr.). Loading differences were corrected for by normalizing to GAPDH expression
(§1) Human keloid fibroblasts were serum-starved in DMEM medium containing 0.5% FBS for 48 hours, and treated with 2.5 ng/mL of TGF-betal for 24 hours and concomitantly treated with the WL-20 (SEQ ID NO: 10) (10 or 50 μM) for 24 hours. The Western blot bands were quantified by densitometry, and CTGF and collagen expression were related to GAPDH expression to correct for loading differences. The expression of CTGF and collagen in control cells was set to 1 for comparison of different blots.

[4] = system: primary rat astrocyte cells; test: Transduction across cell membranes in primary rat astrocyte cells; assay type: cell-based
Method: The in vitro model used to assess transduction across cell membranes was primary rat astrocyte cells. Cells were isolated as described (Innocenti et. al., J. Neurosci. 20:1800-1808, 2000), seeded at ˜3×10^4 cells/cm^2, and cultured in full serum (10% FBS in α-MEM) overnight. Some cells were serum starved by culturing in 0.5% FBS for 1-24 hours prior to treatment with transduction peptides.

[5] = system: porcine ear skin; test: Ex vivo skin transduction, porcine ear skin in modified Franz diffusion cell (Example 2); assay type: in vitro ADME; conditions: 100 uM, conjugated or alone (FIG. 1, Panel C)
Method: The ex vivo model selected for skin transduction studies was freshly excised porcine ears. […] The system was maintained at 37° C. and under constant stirring. […] The amount of peptides that permeated across the skin was determined in the receptor phase; 1.5 mL of the receptor phase was withdrawn, lyophilized and the residue was suspended in 150 μL of water. […] Standard curves of the peptides were used as reference.

[6] = system: anal canal; conditions: 1 mM in K-Y Jelly, 4 hours
Method: (§2) Peptide was applied to both the vagina and anal canal using an applicator and allowed to penetrate for 4 hours. Tissue was excised and embedded in frozen tissue embedding medium (HistoPrep) for cryosectioning. Sections were mounted in anti-fade reagent and examined using fluorescence microscopy (Zeiss Axiovert).

[7] = system: vagina; conditions: 1 mM in K-Y Jelly, 4 hours
Method: as §2

[8] = system: Rat aorta; test: Vasorelaxation of rat aorta rings pre-contracted with KCl (muscle bath)
Method: Rat aorta was isolated and dissected free from connective and fat tissue. Transverse rings, 3.0 mm in width, were cut and tied to silk suture. The tissue was suspended in a muscle bath containing a bicarbonate buffer (120 mM NaCl, 4.7 mM KCl, 1.0 mM MgSO4, 1.0 mM NaH2PO4, 10 mM glucose, 1.5 mM CaCl2, and 25 mM […], pH 7.4) and equilibrated with 95% O2/5% CO2 at 37° C. The rings were fixed at one end to a stainless steel wire and attached to a force transducer in muscle perfusion system (Radnotti). The rings were then progressively stretched, and the isometric force generated in response to 110 mM KCl (with equimolar replacement of NaCl in bicarbonate buffer) was determined until the consistent maximal force was produced. Agonists and peptide was added directly to the baths. Tissue that was pre-contracted with 110 mM potassium chloride (KCl) followed by 1.0 mM WL-P20 ([…]p[…], pS is phosphoserine) (SEQ ID NO: 10), where pS is phosphoserine) relaxed compared to untreated control (13% relaxation at 10 minutes, 50% relaxation at 30 minutes, and maximum 88% relaxation at ˜60 minutes, FIG. 4). Percent relaxation was calculated relative to maximum force generated with KCl. […] Such a difference may result from different mechanisms of penetration and/or intracellular localization.

[9] = system: collagen; test: TGFβ1-induced collagen expression in human keloid fibroblasts (Western blot); assay type: cell-based; conditions: 10 or 50 μM, 24 hours
Method: as §1

Substance	permeation across the skin, in words [1]	localisation of fluorescence in skin layers [2]	reduction of CTGF expression compared to TGFβ1 treatment [3] [%]	time of maximal transduction [4]	transduction ([4]; 1 μM)	transduction ([4]; 25 μM)	transduction ([4]; 50 μM)	skin penetration [5]	fluorescence in the anal canal [6]	mucosal penetration in the vagina [7]	time of maximum relaxation [8] [min]	maximum relaxation relative to maximum force generated with KCl ([8]; 1.0 mM peptide, 110 mM KCl pre-contraction) [%]	relaxation relative to maximum force generated with KCl ([8]; 1.0 mM peptide, 110 mM KCl pre-contraction, at 10 minutes) [%]	relaxation relative to maximum force generated with KCl ([8]; 1.0 mM peptide, 110 mM KCl pre-contraction, at 30 minutes) [%]	effect on TGFβ1-induced CTGF expression ([3]; 10 or 50 μM)	effect on TGFβ1-induced collagen expression [9]
WLRRApSAPLPGLK (WLRRA[pS]APLPGLK; also: FITC label) [P20, fragment of HSP20, cargo peptide, pS is phosphoserine]	did not permeate across the skin at all	fluorescence was found only in the SC	30													
WLRRIKAWLRRApSAPLPGLK (WLRRIKAWLRRA[pS]APLPGLK) [WL-P20]			46	approximately 20 minutes	no transduction	slightly reduced transduction	efficient transduction	significantly enhanced	only minimal fluorescence	Mucosal penetration in the vagina was achieved	~60	88	13	50	inhibits	inhibits
